Measurements reported in patent US4372948A, “Derivative of saccharide and physiologically active agent containing the same” (Kureha Kagaku Kogyo Kabushiki Kaisha, priority 1980, dated 1983).

Tests used:
cotton pellet granuloma = assay: Anti-granuloma activity (cotton pellet); format: in vivo, rat; conditions: Rattus norvegicus, po, 192 h, 7 days, read-out: I.R. against cotton pellet edema
Method: Following the method of Winter et al. (1963), each two cotton wool pellets, each weighing 30±1 mg, were implanted into the back of each rats of groups of rats, each group consisting of 6 animals, at the positions of mutually symmetrical concerning the median line of the rat. To these groups of the thus operated rats, the present compounds were respectively administered orally and forcibly as a solution or dispersion in distilled water for 7 continuous days, once a day at a dose of 1000 mg/kg/day. On 8th day of the implantation, the granuloma was extirpated and the dry weight of the granuloma was measured, the rate of inhibiting the proliferation of granuloma being obtained as in (5-1) being shown in Table 8.

[1] = system: pseudo-escaping reaction to tail pressure; assay: Analgetic activity against mechanical stimulation of pressure; format: in vivo, mouse (ICR female); conditions: oral, 1000 mg/kg
exudation = assay: Anti-exudation activity (air pouch, croton oil); format: in vivo, rat; conditions: Rattus norvegicus, po, 144 h, 5 days, read-out: I.R. against exudation
Method: Following the method of Baris et al. (1965), air was injected subcutaneously into the back of groups of rats, each group consisting of 6 animals to make an air pouch, and 0.5 ml of sesame oil containing 1% by weight of croton oil was injected into the air pouch. Each of the present compounds was orally administered forcibly to each of the groups of rats as a solution or dispersion in distilled water at a dose rate of 1000 mg/kg/day for continued five days. The amount of liquid exudated into the air pouch was measured on 6th day of the operation. The rate of inhibiting the exudation of the liquid was obtained by the same manner as in (5-2) and the results are shown also in Table 8.

total cholesterol = assay: Anti-hyperlipemia activity, total cholesterol in blood; format: in vivo, rabbit (Japanese white male); conditions: oral, 300 mg/kg once; for Reduction of cholesterol level after 3 hrs.: negative = raising
Method: (§1) Japanese white male rabbits were fed for 3 months with a solid diet containing 1% of cholesterol taken ad lib, and after confirming the raised lipid content of the serum of the rabbits, they were utilized as model animals suffering from experimental arteriosclerosis. Each of the present compounds was administered orally as a solution or dispersion in distilled water to the experimental animals of each group at a dose rate of 300 mg/kg once, and blood samples were taken at a predetermined time interval from the auricular vein of each animal. The content of cholesterol in the blood specimen was traced as the time passed by, with an enzymatic method, and the content of beta-lipoprotein in the same blood specimen was traced with a colorimetry. Each value in Table 7 is the difference between the level just before administration and the level after 3 or 6 hours of the administration.

blood pressure = assay: Anti-hypertension activity (reduction of blood pressure); format: in vivo, rat (spontaneous hypertension); conditions: oral, 300 mg/kg
Method: Rats of spontaneous hypertension were orally administered with each of the present compounds as a solution or dispersion in distilled water at a dose rate of 300 mg/kg body weight. After 3 and 6 hours of the administration, the blood pressure of each rat was determined, and the difference between the above-determined value and the value just before the administeration was used as the index of the activity of reducing the blood pressure of the compound.

level of blood sugar = assay: Anti-hyperglycemia activity (reduction of blood sugar level); format: in vivo, rat (Wistar, streptozotocin); conditions: oral, 300 mg/kg
Method: A group of Wistar rats to which at first streptozotocin was interperitoneally administered at a rate of 60 mg/kg and of which the positivity of glycosuria was confirmed after a week of the administration and to which regular insulin was further administered and of which the reduction of levels of glucose in urine and blood was once confirmed, however, of which hyperglycemia and hyperglycosuria were again confirmed after a few days was chosen and used as model animals of glycosuria in the following test. After orally administering each of the present compounds to the model animals at a dose of 300 mg/kg body weight, as a solution or dispersion in distilled water, the blood was collected two times, respectively after 3 and 6 hours of the administration.

in vivo = conditions: mouse, in vivo, po, mice, 7 days observation, read-out: LD50, acute oral toxicity
Sarcoma-180 = assay: Anti-tumour activity against Sarcoma-180; format: in vivo, mouse (ICR-JCL); conditions: Mus musculus, Sarcoma-180, po, 600 h, 10 times every other day, tumour weight on 25th day, read-out: Antitumour activity, inhibiting rate (I.R.)
Method: Sarcoma-180 was transplanted into the axillary part of ICR-JCL mice at a rate of 1×10^6 cells/animal, and after 24 hours of transplantation, each of the present compounds as a solution or dispersion in sterilized physiological saline solution was orally administered to each of the transplanted mice 10 times every other day at a dose of 500 mg/kg/time. On 25th day of the transplantation, tumour node(s) were extirpated from all the mice to determine the weight of the tumour nodes.
Antitumour activity (activity of inhibiting the proliferation of the transplanted sarcoma) of each of the present compounds was derived by the following formula and shown in Table 6:
Antitumour activity (Inhibiting rate, I.R.)=(1-T/C)×100(%).
T represents the total weight of tumour nodes of the group of mice transplanted and administered with the present compound, and
C represents the total weight of tumour nodes of the group of mice transplanted, however, not administered with any agents.

acetic acid writhing = assay: Analgetic activity against chemical stimulation of acetic acid (writhing); format: in vivo, mouse (ICR female); conditions: Mus musculus, po, 30 min before 0.6% acetic acid, read-out: I.R. of writhing
Source text: (§2) Rate of inhibition (I.R.) (%)=(1-T/C)×100
T represents the average number of writhing of the group of mice administered with the present compound and injected with acetic acid, and C represents the average number of writhing of the group of mice only injected with acetic acid (control).

beta-lipoprotein = assay: Anti-hyperlipemia activity, beta-lipoprotein in blood; format: in vivo, rabbit (Japanese white male); conditions: oral, 300 mg/kg once
Method: as §1

carrageenin edema = assay: Anti-Carrageenin edema activity; format: in vivo, rat; conditions: Rattus norvegicus, po, 1000 mg/kg once, read-out: I.R. against carrageenin edema
Method: After orally administering each of the present compounds forcibly to each group of rats, composed of 10 animals, as a solution or dispersion in distilled water at a dose of 1000 mg/kg once, 0.1 ml of an aqueous dispersion of 1% carrageenin in aqueous physiological saline solution was injected into the foot pad of the right hind leg of the administered animal following Van Arman et al. (1963). Thereafter, the thickness of the foot pad was measured at a time interval to find the rate of inhibiting of the swelling of the foot pad according to the following formula:
as §2
T means the average volume of the foot pad of the animals administered with one of the present compounds and carrageenin, and
C means that of the animal not administered with the present compound, however, administered with carrageenin.

[2] = system: pyrexia (Saccharomyces cerevisiae); assay: Anti-pyrexia activity (yeast-induced); format: in vivo; conditions: Rattus norvegicus, oral, read-out: Rate of inhibiting pyrexia (I.R.)
Method: Following the method of Winter et al. (1961), an aqueous dispersion of 20% by weight of Saccharomyces cerevisiae was subcutaneously injected into groups of rats, each group consisting of 6 animals, and after 10-hour fasting, 1000 mg/kg of each of the present compounds was orally administered to the rat as a solution of dispersion in distilled water, and then the rectal temperature of the rat was measured at a predetermined interval of time to find the lowest temperature.
The anti-pyrexia activity of each compound was obtained from the following formula: […]
Anti-pyrexia activity represented by the rate of inhibition (I.R.)
C2 represents the average rectal temperature of negative control (non-treatment), not injected with the yeast and not administered with the present compound,
C1 represents the average temperature of positive control, injected with the yeast and not administered with the compound and T represents the temperature of tested animals, injected with the yeast and administered with the present compound.

SMILES: O=C(OC1CCCCC1)c1ccc(NC2O[C@H](CO)[C@@H](O[C@@H]3O[C@H](CO)[C@@H](O)[C@H](O)[C@H]3O)[C@H](O)[C@H]2O)cc1 (stereo partly shown) [Compound 19, cyclohexyl p-aminobenzoate-N-cellobioside]
- inhibition in vivo at 1000 mg/kg/day (cotton pellet granuloma): 5.5%
- Pseudo-escapting reaction pressure [1]: 82 mmHg
- Pseudo-escapting reaction time [1]: 37 s
- inhibition in vivo at 1000 mg/kg/day (exudation): 24.6%
- Reduction of cholesterol level after 3 hrs. (total cholesterol): 3 mg/dL
- Reduction of cholesterol level after 6 hrs. (total cholesterol): 41 mg/dL
- Reduced level of blood pressure after 3 hrs. (blood pressure): 20 mm Hg
- Reduced level of blood pressure after 6 hrs. (blood pressure): 21 mm Hg
- Reduced level of blood sugar after 3 hrs. (level of blood sugar): 101 mg/dL
- Reduced level of blood sugar after 6 hrs. (level of blood sugar): 113 mg/dL
- LD50 at 168 h (in vivo): 14600 mg/kg
- inhibition in vivo at 500 mg/kg (Sarcoma-180): 51%
- inhibition in vivo at 1000 mg/kg (acetic acid writhing): 24%
- Reduction of beta-lipoprotein level after 3 hrs. (beta-lipoprotein): 135 mg/dL
- Reduction of beta-lipoprotein level after 6 hrs. (beta-lipoprotein): 148 mg/dL
- inhibition in vivo at 1000 mg/kg (carrageenin edema): 5.5%
- inhibition in vivo at 1000 mg/kg [2]: 37%

SMILES: O=C(OCC1CCCCC1)c1ccc(NC2OC[C@@H](O)[C@@H](O)[C@H]2O)cc1 (stereo partly drawn) [Compound 23, hexahydrobenzyl p-aminobenzoate-N-D-riboside]
- inhibition in vivo at 1000 mg/kg/day (cotton pellet granuloma): 7.3%
- Pseudo-escapting reaction pressure [1]: 80 mmHg
- Pseudo-escapting reaction time [1]: 39 s
- inhibition in vivo at 1000 mg/kg/day (exudation): 22.5%
- Reduction of cholesterol level after 3 hrs. (total cholesterol): -1 mg/dL
- Reduction of cholesterol level after 6 hrs. (total cholesterol): 40 mg/dL
- Reduced level of blood pressure after 3 hrs. (blood pressure): 21 mm Hg
- Reduced level of blood pressure after 6 hrs. (blood pressure): 22 mm Hg
- Reduced level of blood sugar after 3 hrs. (level of blood sugar): 120 mg/dL
- Reduced level of blood sugar after 6 hrs. (level of blood sugar): 126 mg/dL
- LD50 at 168 h (in vivo): 12600 mg/kg
- inhibition in vivo at 500 mg/kg (Sarcoma-180): 47%
- inhibition in vivo at 1000 mg/kg (acetic acid writhing): 23%
- Reduction of beta-lipoprotein level after 3 hrs. (beta-lipoprotein): 141 mg/dL
- Reduction of beta-lipoprotein level after 6 hrs. (beta-lipoprotein): 143 mg/dL
- inhibition in vivo at 1000 mg/kg (carrageenin edema): 4.9%
- inhibition in vivo at 1000 mg/kg [2]: 15%

SMILES: O=C(OC1CCCCC1)c1ccccc1NC1C[C@H](O)[C@H](O)CO1 (stereo partly drawn) [Compound 16, cyclohexyl o-aminobenzoate-N-D-deoxyriboside]
- inhibition in vivo at 1000 mg/kg/day (cotton pellet granuloma): 6.5%
- Pseudo-escapting reaction pressure [1]: 87 mmHg
- Pseudo-escapting reaction time [1]: 39 s
- inhibition in vivo at 1000 mg/kg/day (exudation): 5.7%
- Reduction of cholesterol level after 3 hrs. (total cholesterol): 0 mg/dL
- Reduction of cholesterol level after 6 hrs. (total cholesterol): 33 mg/dL
- Reduced level of blood pressure after 3 hrs. (blood pressure): 20 mm Hg
- Reduced level of blood pressure after 6 hrs. (blood pressure): 20 mm Hg
- Reduced level of blood sugar after 3 hrs. (level of blood sugar): 125 mg/dL
- Reduced level of blood sugar after 6 hrs. (level of blood sugar): 140 mg/dL
- LD50 at 168 h (in vivo): 8800 mg/kg
- inhibition in vivo at 500 mg/kg (Sarcoma-180): 37%
- inhibition in vivo at 1000 mg/kg (acetic acid writhing): 26%
- Reduction of beta-lipoprotein level after 3 hrs. (beta-lipoprotein): 104 mg/dL
- Reduction of beta-lipoprotein level after 6 hrs. (beta-lipoprotein): 110 mg/dL
- inhibition in vivo at 1000 mg/kg (carrageenin edema): 18.6%
- inhibition in vivo at 1000 mg/kg [2]: 48%

SMILES: O=C(Oc1ccccc1)c1ccc(NC2OC[C@@H](O)[C@H](O)[C@H]2O)cc1 (stereo partly drawn) [Compound 8, phenyl p-aminobenzoate-N-D-xyloside]
- inhibition in vivo at 1000 mg/kg/day (cotton pellet granuloma): 5.6%
- Pseudo-escapting reaction pressure [1]: 80 mmHg
- Pseudo-escapting reaction time [1]: 39 s
- inhibition in vivo at 1000 mg/kg/day (exudation): 15.7%
- Reduction of cholesterol level after 3 hrs. (total cholesterol): 6 mg/dL
- Reduction of cholesterol level after 6 hrs. (total cholesterol): 46 mg/dL
- Reduced level of blood pressure after 3 hrs. (blood pressure): 18 mm Hg
- Reduced level of blood pressure after 6 hrs. (blood pressure): 20 mm Hg
- Reduced level of blood sugar after 3 hrs. (level of blood sugar): 106 mg/dL
- Reduced level of blood sugar after 6 hrs. (level of blood sugar): 140 mg/dL
- LD50 at 168 h (in vivo): 13500 mg/kg
- inhibition in vivo at 500 mg/kg (Sarcoma-180): 53%
- inhibition in vivo at 1000 mg/kg (acetic acid writhing): 20%
- Reduction of beta-lipoprotein level after 3 hrs. (beta-lipoprotein): 128 mg/dL
- Reduction of beta-lipoprotein level after 6 hrs. (beta-lipoprotein): 144 mg/dL
- inhibition in vivo at 1000 mg/kg (carrageenin edema): 21.4%
- inhibition in vivo at 1000 mg/kg [2]: 47%

SMILES: NC(=O)c1ccc(NC2OC[C@@H](O)[C@H](O)[C@H]2O)cc1 (stereo partly drawn) [Compound 3, p-aminobenzoic acid amide-N-D-xyloside]
- inhibition in vivo at 1000 mg/kg/day (cotton pellet granuloma): 7%
- Pseudo-escapting reaction pressure [1]: 93 mmHg
- Pseudo-escapting reaction time [1]: 44 s
- inhibition in vivo at 1000 mg/kg/day (exudation): 19.1%
- Reduction of cholesterol level after 3 hrs. (total cholesterol): 3 mg/dL
- Reduction of cholesterol level after 6 hrs. (total cholesterol): 45 mg/dL
- Reduced level of blood pressure after 3 hrs. (blood pressure): 20 mm Hg
- Reduced level of blood pressure after 6 hrs. (blood pressure): 24 mm Hg
- Reduced level of blood sugar after 3 hrs. (level of blood sugar): 101 mg/dL
- Reduced level of blood sugar after 6 hrs. (level of blood sugar): 115 mg/dL
- LD50 at 168 h (in vivo): > 15000 mg/kg
- inhibition in vivo at 500 mg/kg (Sarcoma-180): 47%
- inhibition in vivo at 1000 mg/kg (acetic acid writhing): 22%
- Reduction of beta-lipoprotein level after 3 hrs. (beta-lipoprotein): 115 mg/dL
- Reduction of beta-lipoprotein level after 6 hrs. (beta-lipoprotein): 119 mg/dL
- inhibition in vivo at 1000 mg/kg (carrageenin edema): 26.5%
- inhibition in vivo at 1000 mg/kg [2]: 20%
